Among the data in patent US20240131178A1, “ANTIBODY-DRUG CONJUGATE INCLUDING ANTIBODY AGAINST HUMAN CLDN18.2, AND USE THEREOF” (LEGOCHEM BIOSCIENCES, INC., priority 2021, published 2024) are IC50 values, retold here.

Type in all cases: cell-based
What all share (details): 144 hours, SRB dye

The test system of assay [1] is gastric cancer cell line NUGC-4. Description: In vitro cytotoxicity (cell proliferation inhibition), NUGC-4. As to the method: (§1) The cell proliferation inhibitory activity of drugs shown in Table 4 and the ADCs was measured. Gastric cancer cell lines NUGC-4, SNU-601, and SNU-602, and a pancreatic cancer cell line PATU-8988s, which are commercially available as cancer cell lines, were used, and normal cell lines HaCaT, Fa2N-4, HK-2, and HS738.st/Int were used. As for test groups treated with each cancer cell line for 144 hours, cells were seeded into a 96-well plate at the rate of 2,500 cells/well to 10,000 cells/well and cultured for 24 hours, and then each cancer cell line was treated with each drug and each ADC at a concentration of 0.256 pM to 100 nM (5-fold serial diltuion), and each normal cell line was treated with each drug and each ADC at a concentration of 2.56 pM to 1,000 nM (5-fold serial dilution). The number of cells survived after 144 hours was quantified using a sulforhodamine B (SRB) dye, and the cell line Hs738.st/Int was quantified using Cell titer glo.

Assay [2] has as its system gastric cancer cell line SNU-601. Nature of the assay: In vitro cytotoxicity (cell proliferation inhibition), SNU-601. How it is done:
as §1

Assay [3] has as its system gastric cancer cell line SNU-620. Nature of the assay: In vitro cytotoxicity (cell proliferation inhibition), SNU-620.
The test system of assay [4] is pancreatic cancer cell line PATU-8988s. Description: In vitro cytotoxicity (cell proliferation inhibition), PATU-8988s. As to the method:
as §1

Another assay concerns normal cell line HaCaT. Description: In vitro cytotoxicity, normal cell line HaCaT. How it is done:
as §1

The test system of a further assay is normal cell line Fa2N-4. Description: In vitro cytotoxicity, normal cell line Fa2N-4. How it is done:
as §1

The next assay has as its system normal cell line HK-2. Nature of the assay: In vitro cytotoxicity, normal cell line HK-2. As to the method:
as §1

Square brackets hold non-standard residues; d marks the D form. Peptide text beside a SMILES is read from it. * marks the point of attachment. Dolaproine = CO[C@@H]([C@@H]1CCCN1)[C@@H](C)C(=O)O; Dil = CC[C@H](C)[C@H](NC)[C@@H](CC(=O)O)OC; X1 = C[C@@H](N*)[C@@H](O)c1ccccc1; NMeV = CN[C@H](C(=O)O)C(C)C

Regarding `CC[C@H](C)[C@@H]([C@@H](CC(=O)N1CCC[C@H]1[C@H](OC)[C@@H](C)C(=O)N[C@H](C)[C@@H](O)c1ccccc1)OC)N(C)C(=O)[C@@H](NC(=O)[C@@H](NC)C(C)C)C(C)C` [MMAE, monomethyl auristatin E] (H-[NMeV]V[Dil][Dolaproine]-X1), the IC50 in assay [1] is 0.29 nM; in assay [2], 0.51 nM; in assay [3], 0.71 nM; in assay [4], 0.145 nM; with normal cell line HaCaT, 0.14 nM; in the assay with normal cell line Fa2N-4, 3 nM. In the assay on normal cell line HK-2, this compound showed an IC50 of 21.9 nM.

As to `C=C1C[C@H]2C=Nc3cc(OCCCCCOc4cc5c(cc4OC)C(=O)N4CC(=C)C[C@H]4C=N5)c(OC)cc3C(=O)N2C1` [SG2057], the figures for the IC50 in assay [1], in assay [2] and in assay [3] were 0.03 nM, 0.003 nM and 0.097 nM, respectively.

The IC50 is the midpoint of a concentration-inhibition curve. Read a high IC50 as weaker potency.
